The test system of the assay is RAW. Put plainly: Inhibition of LPS-induced NO production in RAW 264.7 cells. The format is functional, cell-based. To be noted: Mus musculus.

Molecules are shown by their SMILES.

A word on the IC50: it is the concentration that inhibits the measured activity by half. High values mean weaker potency, low ones greater potency.

Molecule `C=C1C[C@]23C[C@H](OC(=O)/C=C/c4ccc(O)c(O)c4)[C@H]1[C@@]2(C)CCCC3(C)C` displayed an IC50 of 6.3 µM.
